Test results: PMC6150365, “Simultaneous Determination of Seven Components in Rat Plasma by the UPLC-MS/MS Method and Application of Pharmacokinetic Studies to SimiaoYong’an Decoction” (Molecules : A Journal of Synthetic Chemistry and Natural …, 2017)

Assay: Pharmacokinetic study in rats after oral administration of SYD extract and its single and combined TCM extracts (UPLC-MS/MS of plasma)
Settings: for MRT last: MRT(0–t); for MRT inf: MRT(0–∞); for half-life: t1/2, rat plasma
[1] = male, Sprague-Dawley, rat, plasma, po, 0.68 g/kg, rat plasma, oral GU extract 0.68 g/kg, n = 6
[2] = male, Sprague-Dawley, rat, plasma, po, 2.14 g·kg^−1 (extract), rat plasma, oral LJ + GU extract, n = 6
[3] = male, Sprague-Dawley, rat, plasma, po, 2.43 g/kg, rat plasma, oral AS + GU extract 2.43 g/kg, n = 6
[4] = male, Sprague-Dawley, rat, plasma, po, 3.38 g/kg extract (6.67 g/kg as herbs), rat plasma, oral SN + GU extract, n = 6
[5] = male, Sprague-Dawley, rat, plasma, po, 4.01 g·kg^−1 (extract), rat plasma, oral LJ + AS + GU extract, n = 6
[6] = male, Sprague-Dawley, rat, plasma, po, 4.73 g/kg, rat plasma, oral LJ + SN + GU extract 4.73 g/kg, n = 6
[7] = male, Sprague-Dawley, rat, plasma, po, 8.25 g/kg, rat plasma, oral SYD extract 8.25 g/kg, n = 6

Procedure: Pieces of LJ, SN, AS and GU were weighed according to the proportion of 3:3:2:1 with appropriate amounts. The mixed pieces were crushed and decocted two times (60 min each time) with water (1:10 w/v) after being soaked for 60 min. The decoctions were then combined and condensed to the concentration of 0.5 g/mL, after which 95% ethanol was slowly added to the concentrate until a final ethanol concentration of 70% was reached. The SYD solution was set at room temperature overnight and then was filtered. The solvent was recovered, and the residue was dried under reduced pressure. A certain amount of the water extract of SYD was weighed and then dissolved with purified water for intragastric (oral) administration solution. The single herbs and different combination groups such as LJ, SN, AS, GU, LJ + SN, LJ + AS, LJ + GU, SN + AS, SN + GU, AS + GU, LJ + SN + AS, LJ + SN + GU, LJ + AS + GU and SN + AS + GU were prepared according to the procedure of SYD.
Male Sprague-Dawley (SD) rats (body weight 250 ± 10 g) were supplied by the SPF (Beijing) Biotechnology Co., Ltd. (Certificate No.: SCXK 2016-0002, Beijing, China). The animals were maintained in controlled conditions (temperature 20–25 °C, relative humidity 55–60% and 12-h light/12-h dark cycle) with free access to standard laboratory food and water for seven days of acclimation and then fasted for 12 h before each experiment but allowed to drink freely during this time.
Ninety male SD rats were randomly separated into 15 groups and administered a dosage of extract via gastric gavage once per day; detailed information about the oral daily dose of SYD extract and the corresponding single and combined TCMs (LJ, SN, AS, GU, LJ + SN, LJ + AS, LJ + GU, SN + AS, SN + GU, AS + GU, LJ + SN + AS, LJ + SN + GU, LJ + AS + GU, SN + AS + GU and SYD) is listed in Table 4.
Each plasma sample (200 μL) with 50 μL IS solution added was spiked into 100 μL 1% formic acid distilled water solution and then vortexed for 1 min. Protein was precipitated by adding 600 μL of methanol to the mixture. After being vortexed and sonicated, the samples were centrifuged at 25,000 r/min, 4 °C for 10 min. The supernatant of each sample was transferred to a new 2-mL centrifuge tube and evaporated to dryness by N2 at 40 °C. Finally, the residue was dissolved in 100 μL methanol–water (1:1, v/v), followed by centrifugation at 30,000 r/min, 4 °C for 10 min, and 10-μL supernatant aliquots were injected into the UPLC-MS/MS system for analysis.
The SYD was decomposed into 15 groups of compatibility combinations (LJ, SN, AS, GU, LJ + SN, LJ + AS, LJ + GU, SN + AS, SN + GU, AS + GU, LJ + SN + AS, LJ + SN + GU, LJ + AS + GU, SN + AS + GU and SYD). The 15 combinations were weighed according to the proportion of 3:3:2:1 with appropriate amounts and prepared by the method described in “Section 3.2”. Six male SD rats (body weight 250 ± 10 g) of each compatibility group were used in the pharmacokinetic study. After 12-h fast, rats of the different groups were orally administered the respective extract dissolved in saline (Table 4). Venous blood (0.45 mL) was obtained from the orbit vein and collected in heparin-pretreated polypropylene centrifuge tubes at 0.083 h, 0.17 h, 0.25 h, 0.50 h, 0.75 h, 1.0 h, 1.5 h, 2.0 h, 3.0 h, 4.0 h, 6.0 h, 8.0, 12 h and 24 h post-dose. The plasma was separated by centrifugation at 8000 r/min for 10 min and then stored at −20 °C until analysis. The amount of each analyte in the plasma was estimated by UPLC-MS/MS analysis as described in Section 3.5.
Non-compartmental methods using Phoenix WinNonlin 7.0 software provided by the Beijing University of Chinese Medicine were used to analyze plasma concentration versus time profiles and to estimate the following pharmacokinetic parameters: terminal elimination half-lives (t1/2), area under the plasma concentration versus time curve from zero to last sampling time (AUC), and the mean residence time (MRT).

`O=C1C[C@@H](c2ccc(O[C@@H]3O[C@H](CO)[C@@H](O)[C@H](O)[C@H]3O)cc2)Oc2cc(O)ccc21` [Liquiritin, liquiritin] gave an AUC(0-t) [1] of 190 ng·h/mL, an AUC(0-inf) (male, Sprague-Dawley, rat, plasma, po, 0.68 g/kg, AUC(0–∞), rat plasma, oral GU extract 0.68 g/kg, n = 6) of 190 ng·h/mL and a Cmax (male, Sprague-Dawley, rat, plasma, po, 0.68 g/kg, Cmax, rat plasma, oral GU extract 0.68 g/kg, n = 6) of 270 ng/mL. The MRT last [1] was 1.16 ± 0.01 h, the MRT inf [1] was 1.19 ± 0.01 h and the Tmax (male, Sprague-Dawley, rat, plasma, po, 0.68 g/kg, Tmax, rat plasma, oral GU extract 0.68 g/kg, n = 6) was 0.08 h. It also gave a half-life (male, Sprague-Dawley, rat, plasma, po, 0.68 g/kg, oral GU extract 0.68 g/kg, n = 6) of 4.41 ± 0.59 h, an AUC(0-inf) (male, Sprague-Dawley, rat, plasma, po, 2.14 g·kg^−1 (extract), AUC(0–∞), rat plasma, oral LJ + GU extract, n = 6) of 200 ± 60 ng·h/mL and an MRT last [2] of 2.53 ± 0.56 h. For the same compound, the MRT inf [2] was 13.5 ± 11 h, the Tmax (male, Sprague-Dawley, rat, plasma, po, 2.14 g·kg^−1 (extract), Tmax, rat plasma, oral LJ + GU extract, n = 6) was 0.56 ± 0.56 h and the half-life (male, Sprague-Dawley, rat, plasma, po, 2.14 g·kg^−1 (extract), oral LJ + GU extract, n = 6) was 12.2 ± 7.3 h. It also gave an AUC(0-t) (male, Sprague-Dawley, rat, plasma, po, 2.14 g·kg^−1 extract, rat plasma, oral LJ + GU extract, n = 6) of 180 ± 60 ng·h/mL, an AUC(0-t) [3] of 220 ± 80 ng·h/mL and an AUC(0-inf) (male, Sprague-Dawley, rat, plasma, po, 2.43 g/kg, AUC(0–∞), rat plasma, oral AS + GU extract 2.43 g/kg, n = 6) of 240 ± 80 ng·h/mL. The MRT last [3] was 2.3 ± 0.63 h, the MRT inf [3] was 11.1 ± 8.58 h and the Tmax (male, Sprague-Dawley, rat, plasma, po, 2.43 g/kg, Tmax, rat plasma, oral AS + GU extract 2.43 g/kg, n = 6) was 0.6 ± 0.5 h. The half-life (male, Sprague-Dawley, rat, plasma, po, 2.43 g/kg, oral AS + GU extract 2.43 g/kg, n = 6) was 9.28 ± 5.92 h, the MRT last [4] was 2.48 ± 0.46 h and the MRT inf [4] was 12.4 ± 9.87 h. The Tmax (male, Sprague-Dawley, rat, plasma, po, 3.38 g/kg extract (6.67 g/kg as herbs), Tmax, rat plasma, oral SN + GU extract, n = 6) was 0.42 ± 0.53 h, the half-life (male, Sprague-Dawley, rat, plasma, po, 3.38 g/kg extract (6.67 g/kg as herbs), oral SN + GU extract, n = 6) was 7.81 ± 5.31 h and the AUC(0-t) (male, Sprague-Dawley, rat, plasma, po, 3.38 g·kg^−1 (extract), rat plasma, oral SN + GU extract, n = 6) was 180 ± 50 ng·h/mL. It also gave an AUC(0-inf) (male, Sprague-Dawley, rat, plasma, po, 3.38 g·kg^−1 (extract), AUC(0–∞), rat plasma, oral SN + GU extract, n = 6) of 210 ± 50 ng·h/mL, a Cmax (male, Sprague-Dawley, rat, plasma, po, 3.38 g·kg^−1 extract, Cmax, rat plasma, oral SN + GU extract, n = 6) of 150 ± 70 ng/mL and an AUC(0-t) [5] of 220 ± 130 ng·h/mL. For the same compound, the AUC(0-inf) (male, Sprague-Dawley, rat, plasma, po, 4.01 g·kg^−1 (extract), AUC(0–∞), rat plasma, oral LJ + AS + GU extract, n = 6) was 260 ± 140 ng·h/mL, the Cmax (male, Sprague-Dawley, rat, plasma, po, 4.01 g·kg^−1 (extract), Cmax, rat plasma, oral LJ + AS + GU extract, n = 6) was 210 ± 170 ng/mL and the MRT last [5] was 2.41 ± 0.63 h. The MRT inf [5] was 16 ± 11.8 h, the Tmax (male, Sprague-Dawley, rat, plasma, po, 4.01 g·kg^−1 (extract), Tmax, rat plasma, oral LJ + AS + GU extract, n = 6) was 0.79 ± 0.29 h and the half-life (male, Sprague-Dawley, rat, plasma, po, 4.01 g·kg^−1 (extract), oral LJ + AS + GU extract, n = 6) was 13.7 ± 4.69 h. It also gave an AUC(0-t) [6] of 230 ± 160 ng·h/mL, an AUC(0-inf) (male, Sprague-Dawley, rat, plasma, po, 4.73 g/kg, AUC(0–∞), rat plasma, oral LJ + SN + GU extract 4.73 g/kg, n = 6) of 260 ± 170 ng·h/mL and an MRT last [6] of 2.5 ± 0.67 h. For the same compound, the MRT inf [6] was 16.3 ± 12.9 h, the Tmax (male, Sprague-Dawley, rat, plasma, po, 4.73 g/kg, Tmax, rat plasma, oral LJ + SN + GU extract 4.73 g/kg, n = 6) was 0.88 ± 0.31 h and the half-life (male, Sprague-Dawley, rat, plasma, po, 4.73 g/kg, oral LJ + SN + GU extract 4.73 g/kg, n = 6) was 13.4 ± 5.15 h. The AUC(0-inf) (male, Sprague-Dawley, rat, plasma, po, 8.25 g/kg) was 340 ± 210 ng·h/mL, the AUC(0-t) [7] was 290 ± 210 ng·h/mL and the Cmax (male, Sprague-Dawley, rat, plasma, po, 8.25 g/kg, Cmax, rat plasma, oral SYD extract 8.25 g/kg, n = 6) was 210 ± 170 ng/mL. For the same compound, the MRT last [7] was 2.89 ± 0.92 h, the MRT inf [7] was 11.3 ± 7.16 h and the Tmax (male, Sprague-Dawley, rat, plasma, po, 8.25 g/kg, Tmax, rat plasma, oral SYD extract 8.25 g/kg, n = 6) was 0.88 ± 0.31 h. The half-life (male, Sprague-Dawley, rat, plasma, po, 8.25 g/kg, oral SYD extract 8.25 g/kg, n = 6) was 13.4 ± 5.59 h, the half-life (male, Sprague-Dawley, rat, plasma, po, […], oral SN + AS + GU extract […], n = 6) was 11.6 ± 5.01 h and the Cmax (rat plasma, oral AS + GU extract 2.43 g/kg, n = 6) was 200 ± 130 ng/mL. For the same compound, the Cmax (rat plasma, oral LJ + GU extract, n = 6) was 140 ± 70 ng/mL and the Tmax (rat plasma, oral SN + AS + GU extract […], n = 6) was 1.00 ± 0.27 h.
